For orientation: chromatographic logP means a lipophilicity value derived from retention on a column. Higher therefore signals a more lipophilic compound. As usually defined, the logP is the decadic logarithm of the partition coefficient of the neutral form, usually between octanol and water. Lower therefore signals a more hydrophilic compound.

One data set relates to Tetranychus urticae. Nature of the data set: Tetranychus test, OP-resistant (TETRUR spray treatment), bean leaf discs. Type of data set: in vivo. The following applies: for efficacy in %: application rate 500 g/ha, after 6 days. The procedure: Tetranychus Test, OP-Resistant (TETRUR Spray Treatment)
After a time of 6 days, the efficacy in % is determined.

For data set [1], the system named is Phaedon cochleariae. The data set is described as follows: Phaedon test (PHAECO spray treatment), Chinese cabbage leaf discs. The conditions noted are these: for efficacy in %: application rate 500 g/ha, after 7 days.
Data set [2] in a line: log P by HPLC, EEC Directive 79/831 Annex V.A8, method a). The conditions noted are these: for chromatographic logP: reversed-phase C18 HPLC column; HPLC-MS method a). Type of data set: physicochemical. The procedure:
(§1) ^a) Note regarding the determination of the log P values and mass detection The determination of the given log P values was carried out in accordance with EEC Directive 79/831 Annex V.A8 by HPLC (High Performance Liquid Chromatography) on a reversed-phase column (C18). Agilent 1100 LC system; 50*4.6 Zorbax Eclipse Plus C18 1.8 micron; mobile phase A: acetonitrile (0.1% formic acid); mobile phase B: water (0.09% formic acid); linear gradient from 10% acetonitrile to 95% acetonitrile in 4.25 min, then 95% acetonitrile for a further 1.25 min; oven temperature 55° C.; flow rate: 2.0 ml/min Mass detection is via an Agilend MSD system.
as §1, with “mass detection:” for “mass detection”, “2.0 ml/min.” for “2.0 ml/min”

For the next data set, the system named is Ctenocephalides felis. Nature of the data set: Ctenocephalides felis oral (CTECFE). It counts as in vivo. The procedure: Ctenocephalides felis Oral (CTECFE)
Solvent: 1 part by weight of dimethyl sulphoxide
For the purpose of producing a suitable preparation of active compound, 10 mg of active compound are mixed with 0.5 ml of dimethyl sulphoxide. A portion of the concentrate is diluted with citrated cattle blood, and the desired concentration is prepared.
About 20 unfed adult fleas (Ctenocephalides felis) are placed into a chamber which is closed at the top and bottom with gauze. A metal cylinder whose bottom end is closed with parafilm is placed onto the chamber. The cylinder contains the blood/active compound preparation, which can be taken up by the fleas through the parafilm membrane. After 2 days, the kill in % is determined.
For the purpose of preparing an appropriate active compound formulation, 10 mg of active compound are mixed with 0.5 ml of dimethyl sulphoxide. A portion of the concentrate is diluted with citrated cattle blood, and the desired concentration is prepared.
About 20 unfed adult fleas (Ctenocephalides felis) are placed into a chamber which is closed at the top and bottom with gauze. A metal cylinder whose bottom end is closed with parafilm is placed onto the chamber. The cylinder contains the blood/active compound preparation, which can be taken up by the fleas through the parafilm membrane.

A further data set has as its system Spodoptera frugiperda. The data set is described as follows: Spodoptera frugiperda test (SPODFR spray treatment), maize leaf discs. It counts as in vivo. The conditions noted are these: application rate 500 g/ha; after 7 days. The text has this:
Spodoptera frugiperda Test (SPODFR Spray Treatment)

Another data set deals with Boophilus microplus. The data set is described as follows: Boophilus microplus test (BOOPMI injection). Type of data set: in vivo. The procedure: Boophilus microplus Test (BOOPMI Injection)
(§2) Solvent: dimethyl sulphoxide
The active compound solution is injected into the abdomen (Boophilus microplus), and the animals are transferred into dishes and stored in a climate-controlled room. The activity is assessed by laying of fertile eggs.
The active compound solution is injected into the abdomen (Boophilus microplus), and the animals are transferred into dishes and stored in a climate-controlled room.
The activity is assessed by laying of fertile eggs. 100% means that none of the ticks has laid any fertile eggs.

The subject of the next data set is Myzus persicae. Nature of the data set: Myzus test (MYZUPE spray treatment). It counts as in vivo. The conditions noted are these: for efficacy in %: application rate 500 g/ha, after 6 days. The procedure: Myzus test (Myzupe spray treatment)
After 6 days, the efficacy in % is determined.
Myzus Test (MYZUPE Spray Treatment)

In data set [3] the test system is Phaedon cochleariae. The data set is described as follows: Phaedon cochleariae spray test (PHAECO), cabbage leaves, ppm. Type of data set: in vivo. The following applies: 168 h, 4 ppm, 7 dat. The text has this: Phaedon cochleariae Spray Test (PHAECO)
Solvent: 7 parts by weight of dimethylformamide
Emulsifier: 2 parts by weight of alkylaryl polyglycol ether
(§3) If the addition of ammonium salts or/and penetrants is required, these are in each case added in a concentration of 1000 ppm to the solution of the preparation.

The test system of a further data set is Nilaparvata lugens. Nature of the data set: Nilaparvata lugens spray test (NILALU). The following applies: 168 h, 500 g/ha, 7 dat. It counts as in vivo.
Text: Nilaparvata lugens Spray Test (NILALU)
as §3

Data set [4] deals with Boophilus microplus females of the SP-resistant Parkhurst strain. The data set is described as follows: Boophilus microplus test (DIP). Type of data set: in vivo. The following applies: Rhipicephalus microplus, 168 h; BOOPMI DIP; 100 ppm; 7 dat. The procedure: Boophilus microplus Test (DIP)
Test animals: adult engorged Boophilus microplus females of the SP-resistant Parkhurst strain
as §2
10 mg of active compound are dissolved in 0.5 ml of dimethyl sulphoxide. For the purpose of preparing a suitable formulation, the active compound solution is diluted with water to the concentration desired in each case.
This active compound preparation is pipetted into tubes. 8-10 ticks are transferred into a further tube with holes. The tube is immersed into the active compound formulation, and all ticks are completely wetted. After the liquid has rum off, the ticks are transferred to filter discs in plastic dishes and kept in a climatized room. The activity is assessed after 7 days by laying of fertile eggs. Eggs whose fertility is not outwardly visible are stored in glass tubes in a climate-controlled cabinet until the larvae hatch. An efficacy of 100% means that none of the ticks has laid any fertile eggs.
10 mg of active compound are dissolved in 0.5 ml of dimethyl sulphoxide. For the purpose of preparing a suitable formulation, the active compound solution is diluted with water to the concentration desired in each case (in ppm).
This active compound preparation is pipetted into tubes. 8-10 ticks are transferred into a further tube with holes. The tube is immersed into the active compound formulation, and all ticks are completely wetted. After the liquid has run out, the ticks are transferred onto filter discs in plastic dishes and stored in a climate-controlled room.
The activity is assessed after the desired time by laying of fertile eggs. Eggs whose fertility is not evident from the outside are kept in glass tubes in a climate-controlled cabinet until the larvae have hatched. An effect of 100% means that none of the ticks has laid any fertile eggs.

[5] abbreviates: reversed-phase C18, acetonitrile/water with formic acid.
[6] abbreviates: cell marked a): HPLC, reversed-phase C18, acetonitrile/water with formic acid, gradient 10% to 95% acetonitrile.
Setting [7] is: cell prints no method mark; Ex. 40 value equals the log P given under method a).
The mark [8] stands for this setting: Myzus persicae, 144 h, MYZUPE, 6 dat.

As to `Cn1nc(C2(F)CC2)c(Br)c1C(=O)Nc1ccc(Cl)c(C(=O)NC2(C#N)CC2)c1` [Example 1, 4-Bromo-N-{4-chloro-3-[(1-cyanocyclopropyl)carbamoyl]phenyl}-3-(1-fluorocyclopropyl)-1-methyl-1H-pyrazole-5-carboxamide], the efficacy in % with Tetranychus urticae and in the data set on Phaedon cochleariae [1] was 100% each time. This molecule displayed a chromatographic logP in [2] (setting [5]) of 2.5.

As to `CN(C(=O)c1c(C(F)(F)F)c(C(F)(F)F)nn1C)c1ccc(Cl)c(C(=O)NC2(C#N)CC2)c1` [Example 2, N-{4-Chloro-3-[(1-cyanocyclopropyl)carbamoyl]phenyl}-N,1-dimethyl-3,4-bis(trifluoromethyl)-1H-pyrazole-5-carboxamide], the efficacy in % in the data set with Tetranychus urticae, with Phaedon cochleariae [1], in the data set with Spodoptera frugiperda and in the data set on Myzus persicae was 100% each time. Also, in the data set with Ctenocephalides felis (100 ppm, after 2 days), the “kill in % (effect)” value is 100%. Further, the chromatographic logP in data set [2] (setting [5]) came out at 2.81. Also, the “efficacy in % (laying of fertile eggs)” value with Boophilus microplus (20 μg/animal, after 7 days) was found to be 100%.

As for `CN(C(=O)c1c(Cl)c(C2(Cl)CC2)nn1C)c1ccc(Cl)c(C(=O)NC2(C#N)CC2)c1` [Example 3], the efficacy in % in the data set on Tetranychus urticae and with Phaedon cochleariae [1] was 100% throughout. For the same molecule, the logP in data set [2] (setting [6]) is given as 2.46 ^a).

Regarding `CCN(C(=O)c1cc(N(C)C(=O)c2c(C(F)(F)F)c(C(F)(F)C(F)(F)F)nn2C)ccc1Cl)C1(C#N)CC1` [Example 4], the efficacy in % in the data set on Tetranychus urticae, in the data set with Phaedon cochleariae [1], in the data set on Spodoptera frugiperda and in the data set with Myzus persicae was 100% throughout. Besides, in [2] (setting [6]), the logP is recorded as 3.77 ^a).

In the case of `CN(C(=O)c1c(C(F)(F)F)c(C(F)(F)C(F)(F)F)nn1C)c1ccc(Cl)c(C(=O)N(C)C2(C#N)CC2)c1` [Example 5], the efficacy in % in the data set on Tetranychus urticae is recorded as 100%; with Phaedon cochleariae [1], 100%; in the data set with Spodoptera frugiperda it was 100%; in the data set with Myzus persicae, 90%. Moreover, in data set [2] (setting [6]), the logP was 3.59 ^a).

Take `CC(=O)N(C(=O)c1c(C(F)(F)F)c(C(F)(F)C(F)(F)F)nn1C)c1ccc(Cl)c(C(=O)NC2(C#N)CC2)c1` [Example 53]: in [2] (setting [7]), the logP is reported as 3.63.

In data set [2] (setting [7]), `Cn1nc(C(F)(F)C(F)(F)F)c(C(F)(F)F)c1C(=O)N(Cc1cccnc1)c1ccc(Cl)c(C(=O)NC2(C#N)CC2)c1` [Example 54] gave a log partition coefficient (logP) of 2.85.

In [2] (setting [7]), `C=C(C)CN(C(=O)c1c(C(F)(F)F)c(C(F)(F)C(F)(F)F)nn1C)c1ccc(Cl)c(C(=O)NC2(C#N)CC2)c1` [Example 55] came in with a logP of 3.78.

Molecule `Cn1nc(C(F)(F)C(F)(F)F)c(C(F)(F)F)c1C(=O)N(Cc1ccncc1)c1ccc(Cl)c(C(=O)NC2(C#N)CC2)c1` [Example 56] registered a logP in data set [2] (setting [7]) of 2.52.

On to `C#CCn1nc(C(F)(F)C(F)(F)F)c(C(F)(F)F)c1C(=O)Nc1ccc(Cl)c(C(=O)NC2(C#N)CC2)c1` [Example 57], for which the lipophilicity (logP) in [2] (setting [7]) worked out at 3.58.

In data set [2] (setting [7]), `C=CCn1nc(C(F)(F)C(F)(F)F)c(C(F)(F)F)c1C(=O)Nc1ccc(Cl)c(C(=O)NC2(C#N)CC2)c1` [Example 58] yielded a logP of 3.65. This logP and that of the molecule before are within 0.2 log units of each other.

As to `Cn1nc(C(F)(F)C(F)(F)F)c(C(F)(F)F)c1C(=O)Nc1cc(F)c(Br)c(C(=O)NC2(C#N)CC2)c1` [Example 59], in [2] (setting [7]), the logP is on record as 3.58.

In the case of `CCC(=O)N(C(=O)c1c(C(F)(F)F)c(C(F)(F)C(F)(F)F)nn1C)c1ccc(Cl)c(C(=O)N(C(=O)CC)C2(C#N)CC2)c1` [Example 60], the log partition coefficient (logP) in [2] (setting [7]) is recorded as 4.68.

As to `CCN(C(=O)c1cc(NC(=O)c2c(C(F)(F)F)c(C(F)(F)C(F)(F)F)nn2C)ccc1Cl)C1(C#N)CC1` [Example 61], the logP in data set [2] (setting [7]) is 3.86.

As to `CN(C(=O)c1cc(NC(=O)c2c(C(F)(F)F)c(C(F)(F)C(F)(F)F)nn2C)ccc1Cl)C1(C#N)CC1` [Example 62], the logP in data set [2] (setting [7]) is 3.66.

`CC(C)OC(=O)N(C(=O)c1c(C(F)(F)F)c(C(F)(F)C(F)(F)F)nn1C)c1ccc(Cl)c(C(=O)NC2(C#N)CC2)c1` [Example 63] gave a logP in data set [2] (setting [7]) of 4.19.

`N#CC1(NC(=O)c2cc(NC(=O)c3c(C(F)(F)F)c(C(F)(F)C(F)(F)F)nn3CC(F)(F)F)ccc2Cl)CC1` [Example 64] returned a logP in data set [2] (setting [7]) of 3.60.

On to `Cn1nc(C(F)(F)C(F)(F)F)c(C(F)(F)F)c1C(=O)Nc1ccc(F)c(C(=O)NC2CC2)c1` [Ik-155, reference compound], for which the inhibition at 100 g/ha in the data set on Tetranychus urticae (Tetranychus urticae, foliar, 144 h, TETRUR, 100 g/ha, 6 dat) is 0%; in the data set with Myzus persicae (setting [8]), 0%.

Take `Cn1nc(C(F)(F)C(F)(F)F)c(C(F)(F)F)c1C(=O)Nc1ccc(Br)c(C(=O)NC2CC2)c1` [Ik-175, reference compound]: the inhibition at 4 ppm in the data set on Phaedon cochleariae [3] is 10%. The molecule also gave an inhibition at 100 g/ha with Myzus persicae (setting [8]) of 0%. Moreover, in the data set on Nilaparvata lugens, the inhibition at 500 g/ha amounted to 0%.

In data set [4], `CCC1CC1NC(=O)c1cc(NC(=O)c2c(C(F)(F)F)c(C(F)(F)C(F)(F)F)nn2C)ccc1Cl` (stereo not drawn) [Ik-286, reference compound] registered an inhibition at 100 ppm of 40%. For the same molecule, the inhibition at 100 g/ha in the data set with Phaedon cochleariae [1] (Phaedon cochleariae, in Brassica rapa, foliar, 168 h, read-out: % Activity dat) was found to be 0%. Moreover, the inhibition at 4 ppm in the data set with Ctenocephalides felis (Ctenocephalides felis, po, 48 h, CTECFE, 4 ppm, 2 dat) was 0%. The “% Activity dat” value in the data set on Boophilus microplus (BOOPMI injection, 0.16 μg/animal, 7 dat) stood at 20%. Further, the inhibition at 20 g/ha in the data set with Myzus persicae (Myzus persicae, 144 h, MYZUPE, 20 g/ha, 6 dat) is 0%.

`COC(=O)c1c(SC)c(C(F)(F)C(F)(F)F)nn1C` [methyl 1-methyl-4-(methylsulphanyl)-3-(pentafluoroethyl)-1H-pyrazole-5-carboxylate]: the chromatographic logP in data set [2] (setting [5]) came to 3.51.

In data set [2] (setting [5]), `COC(=O)c1c([N+](=O)[O-])c(C(F)(F)C(F)(F)F)nn1C` [methyl 1-methyl-4-nitro-3-(pentafluoroethyl)-1H-pyrazole-5-carboxylate] displayed a chromatographic logP of 3.18.

In data set [2] (setting [5]), `COC(=O)c1c(N)c(C(F)(F)C(F)(F)F)nn1C` [methyl 4-amino-1-methyl-3-(pentafluoroethyl)-1H-pyrazole-5-carboxylate] returned a chromatographic logP of 2.52.

Values taken from patent US9126945B2, “N-(3-carbamoylphenly)-1H-pyrazole-5-carboxamide derivatives and the use thereof for controlling animal pests” (BAYER INTELLECTUAL PROPERTY GMBH, priority 2011, dated 2015).
